Measured values from patent US11407768B2, “AMPK activators” (Kallyope, Inc., priority 2020, dated 2022).

How the values were obtained:
[1] = system: Chemotherapy-induced Intestinal Injury Model; test: Diarrhea in mouse chemotherapy-induced (5FU) intestinal injury model; format: in vivo, BALB/c mice; conditions: 5FU 400 mg/kg IP; for Diarrhea Score Day 5 / Diarrhea Score Day 6: score 0-3
Protocol: Compounds were formulated in vehicle (0.25% methyl cellulose, 5% Tween 80, 0.02% sodium dodecyl sulfate (SDS) in Hanks' Buffered Salt Solution with Ca' and Mg'). On day 1, either saline or a 400 mg/kg dose of 5-fluorouracil (5FU) in saline was administered by intraperitoneal injection to BALB/c mice. Starting on day 2, vehicle or compound was administered twice a day by oral gavage. From days 5 to 6 post-5FU, the animals were scored for diarrhea severity once a day. The diarrhea was scored 0-3 as follows: 0—normal consistency (black and solid), 1—soft (black and a bit lighter/yellow), 2—loosely shaped stool (yellowish and somewhat watery), 3—extreme diarrhea (very watery).

[2] = Pharmacokinetics (oral bioavailability) in C57BL/6 mice; conditions: mouse, in vivo
Protocol: Selected compounds were tested for pharmacokinetics in C57BL/6 mice. Compounds 1, 4, 31, 32, 40, 55, 57 and 60 were dosed IV at 1 mg/kg as a formulation of 0.2 mg/mL in 5% DMSO+30% PEG400+65% water and were dosed PO at 30 mg/kg as a formulation of 3 mg/mL in 0.25% MC+5% Tween 80+0.02% SDS. Compound 2 was dosed IV at 1 mg/kg as a formulation of 0.2 mg/mL in 5% ethanol +95% saline and was dosed PO at 30 mg/kg as a formulation of 3 mg/mL in 0.25% MC+5% Tween 80+0.02% SDS.

[3] = target: Recombinant AMPK α1/β1/γ1 complex (Homo sapiens (Human), UniProt Q13131+Q9Y478); test: In vitro pAMPK1 kinase activation assay (ADP-Glo, SAMS peptide); format: biochemical; conditions: AMPK α1/β1/γ1 pre-activated with CAMKK2; 12-point curve; 15 min compound incubation
Sequence of Recombinant AMPK α1/β1/γ1 complex (Q13131 whole entry): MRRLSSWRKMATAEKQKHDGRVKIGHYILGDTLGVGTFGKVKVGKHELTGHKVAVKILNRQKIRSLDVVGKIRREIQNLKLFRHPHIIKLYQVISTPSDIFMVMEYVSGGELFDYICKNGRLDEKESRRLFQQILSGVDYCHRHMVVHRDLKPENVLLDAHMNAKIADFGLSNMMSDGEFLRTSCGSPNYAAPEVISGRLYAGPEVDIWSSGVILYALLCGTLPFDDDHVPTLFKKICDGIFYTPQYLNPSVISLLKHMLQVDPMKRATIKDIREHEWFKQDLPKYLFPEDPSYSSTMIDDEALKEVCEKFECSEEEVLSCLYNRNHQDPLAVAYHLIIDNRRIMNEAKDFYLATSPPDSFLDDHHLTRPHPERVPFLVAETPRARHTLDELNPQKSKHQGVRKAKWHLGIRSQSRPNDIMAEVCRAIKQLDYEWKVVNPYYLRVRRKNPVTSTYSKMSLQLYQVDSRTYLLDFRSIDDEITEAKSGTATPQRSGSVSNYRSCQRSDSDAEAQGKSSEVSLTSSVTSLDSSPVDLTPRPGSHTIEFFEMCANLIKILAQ
Sequence of Recombinant AMPK α1/β1/γ1 complex (Q9Y478 whole entry): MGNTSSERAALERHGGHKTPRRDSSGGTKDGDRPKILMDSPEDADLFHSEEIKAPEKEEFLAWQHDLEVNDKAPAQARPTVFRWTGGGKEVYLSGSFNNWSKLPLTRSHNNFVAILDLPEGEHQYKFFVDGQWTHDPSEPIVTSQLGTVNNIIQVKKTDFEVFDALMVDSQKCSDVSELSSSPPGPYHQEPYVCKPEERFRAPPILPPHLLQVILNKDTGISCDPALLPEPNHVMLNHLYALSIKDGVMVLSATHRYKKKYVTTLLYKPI
Sequence of Recombinant AMPK α1/β1/γ1 complex (P54619 whole entry partner): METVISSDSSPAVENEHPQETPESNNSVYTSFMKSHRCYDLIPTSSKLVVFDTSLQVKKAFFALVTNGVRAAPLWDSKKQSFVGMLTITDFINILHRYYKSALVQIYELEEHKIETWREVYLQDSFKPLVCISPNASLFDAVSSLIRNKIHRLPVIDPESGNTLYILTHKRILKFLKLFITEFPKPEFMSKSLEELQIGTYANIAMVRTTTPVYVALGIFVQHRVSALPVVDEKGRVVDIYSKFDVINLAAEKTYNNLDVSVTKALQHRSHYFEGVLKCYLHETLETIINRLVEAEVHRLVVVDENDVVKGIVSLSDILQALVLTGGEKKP
In short: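 CAMKK2-pre-activated α1/β1/γ1 complex incubated 15 minutes with compound, then SAMS peptide phosphorylation measured cell-free by ADP-Glo. 12-point concentration curves; EC50 fitted by interpolation to an ATP:ADP standard curve.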

Caco-2 cells = test: in vitro; conditions: Caco-2
Protocol: (§1) Caco-2 cells purchased from ATCC were seeded onto […] (PET) in 96-well BD Insert plates at 1×10^5 cells/cm^2, and refreshed medium every 4-5 days until to the 21st to 28th day for confluent cell monolayer formation. The transport buffer in the study was HBSS with 10 mM HEPES at pH 7.40±0.05. Test compounds were tested at 2 μM bi-directionally in duplicate. Digoxin was tested at 10 μM bi-directionally in duplicate, while nadolol and metoprolol were tested at 2 μM in A to B direction in duplicate. Final DMSO concentration was adjusted to less than 1%.
(§2) The plate was incubated for 2 hours in CO2 incubator at 37±1° C., with 5% CO2 at saturated humidity without shaking. All samples were mixed with acetonitrile containing internal standard and were centrifuged at 4000 rpm for 10 min. Subsequently, 100 μL supernatant solution was diluted with 100 μL distilled water for LC/MS/MS analysis. Concentrations of test and control compounds in starting solution, donor solution, and receiver solution were quantified by LC/MS/MS, using peak area ratio of analyte/internal standard.

in vitro = conditions: human
Protocol: as §1, §2

blood glucose levels = test: Intraperitoneal (IP) glucose tolerance test in mice; format: in vivo; conditions: for % Change in Average Total AUC (0-90 min) vs. Vehicle: blood glucose, glucose 2 g/kg IP
Source text: Systemic AMPK target engagement in vivo can be assessed by measuring the glucose levels in blood following administration of compounds, whereby AMPK activation in skeletal muscle leads in a decrease in overall blood glucose levels.
Compounds were formulated in vehicle (0.25% methyl cellulose, 5% Tween 80, 0.02% sodium dodecyl sulfate (SDS) in Hanks' Buffered Salt Solution with Ca^2+ and Mg^2). Immediately prior to compound dosing, the tip of the tail was removed with scissors and a drop of blood was collected onto a glucometer strip (Bayer Contour Next) for a −1 hour blood glucose measure. The mice were then immediately administered vehicle or compound at 10 mL/kg PO. Approximately one hour later, mice were tail bled for a 0 min blood glucose reading, and then immediately after were administered D(+) glucose (2 g/kg, made up in saline) at 5 mL/kg IP. Tail bleeds were then performed on all mice at 20 min, 40 min, 60 min, and 90 min post D(+) glucose administration for blood glucose measures. Area under the curves (AUCs) for blood glucose measures were then calculated for each treatment from 0-90 mins.

[4] = system: Acute Dextran Sulfate Sodium (DSS) Colitis Model; test: Intestinal barrier function in mouse acute DSS colitis model (FITC-dextran); format: in vivo, C57B1/6 mice; conditions: 30 mg/kg QD oral; 3% DSS 7 days; serum FITC-dextran
Protocol: Compounds were formulated in vehicle (0.25% methyl cellulose, 5% Tween 80, 0.02% sodium dodecyl sulfate (SDS) in Hanks' Buffered Salt Solution with Ca^2+ and Mg^2+). Vehicle or compound was administered once daily by oral gavage to C57B1/6 mice. After 3 days of pre-dosing, dextran sulfate sodium (DSS) was simultaneously administered at 3% in drinking water, and appropriate water-only controls were included.
After 7 days of DSS administration, animals treated were switched back to their regular water source and administered a single oral bolus dose of FITC-dextran (FD) four hours prior to necropsy. The animals were sacrificed by cardiac puncture and serum was collected. The concentration of […] present in serum was determined by measuring fluorescence intensity on a standard plate reader, and fitting values back to a standard curve.

OC[C@@H](O)[C@@H](O)[C@H](O)[C@@H](O)CNCc1ccc(-c2ccc(-c3nc4nc(O[C@@H]5CO[C@H]6[C@@H]5OC[C@H]6O)[nH]c4cc3Cl)cc2)cc1 [Compound 4, (2R,3R,4R,5S)-6-(((4′-(6-chloro-2-(((3R,3aR,6R,6aR)-6-hydroxyhexahydrofuro[3,2-b]furan-3-yl)oxy)-1H-imidazo[4,5-b]pyridin-5-yl)-[1,1′-biphenyl]-4-yl)methyl)amino)hexane-1,2,3,4,5-pentaol]
Diarrhea Score Day 5, % Change vs. Vehicle ([1]; 3 mpk BID oral): −16%
Diarrhea Score Day 6, % Change vs. Vehicle ([1]; 3 mpk BID oral): −44%
Diarrhea Score Day 5 ([1]; 3 mpk BID oral): 0.75
Diarrhea Score Day 6 ([1]; 3 mpk BID oral): 1.00
Diarrhea Score Day 5, % Change vs. Vehicle ([1]; 10 mpk BID oral): −72%
Diarrhea Score Day 6, % Change vs. Vehicle ([1]; 10 mpk BID oral): −79%
Diarrhea Score Day 5 ([1]; 10 mpk BID oral): 0.25
Diarrhea Score Day 6 ([1]; 10 mpk BID oral): 0.38
half-life [2]: 1.4 h
bioavailability ([2]; IV 1 mg/kg, PO 30 mg/kg): < 1%
Vd ([2]; following IV administration, 1 mg/kg, read-out: volume of distribution): < 1 L/kg
EC50 [3]: 0.1 nM
permeability (in words) (Caco-2 cells): low permeability
Papp A→B at 2 h, 2 μM (in vitro; Caco-2, pH 7.4): < 0.48 ×10⁻⁶ cm/s
Papp B→A at 2 h, 2 μM (in vitro; Caco-2, pH 7.4): 0.71 ×10⁻⁶ cm/s
efflux ratio at 2 h, 2 μM (in vitro; Caco-2, pH 7.4, Efflux Ratio): > 1.48
recovery at 2 h, 2 μM (in vitro; Caco-2, pH 7.4, Mean Recovery A to B): < 99.6%
recovery at 2 h, 2 μM (in vitro; Caco-2, pH 7.4, Mean Recovery B to A): 102%
% Change in Average Total AUC (0-90 min) vs. Vehicle (blood glucose levels; 30 mpk PO): −0.9%
change in blood glucose AUC vs. vehicle / systemic AMPK activation (in words) (blood glucose levels; 30 mpk for all compounds, up to 100 mpk for Compound 4): do not lead to activation of AMPK in skeletal muscle
% Change in Average Total AUC (0-90 min) vs. Vehicle (blood glucose levels; 100 mpk PO): +2.3%
Change in Fluorescence Intensity vs. Vehicle [4]: −43%
